“And” between values parts separate entries of the source, which are not always exact repeats. Equal entries are not always repeated.
Key:
actin.MassS1 [1] = molecular target: T1, actin.MassS1 (Bos taurus, UniProt Q9BE39); assay: ADP release rate constant (k-AD), ADP displacement by excess ATP; type: biochemical, bovine; design: effect of Pi on kobs of ADP release / increase in kobs of ADP release in the presence of phosphate / activation energy (Ea) of k−AD (ADP release): dose or concentration left out as unconfirmed; conditions: for kobs of ADP release (fast phase): 75 µM ADP displaced by 8 mM ATP; for activation energy (Ea) of k−AD (ADP release): Mass
T1 construct: from tissue; host or cells: bovine masseter muscle (myosin); rabbit muscle (actin)
Method: Two types of myosins were studied which are known to differ in their dissociation constant for nucleotides ([5], [51]). The rate constant for the release of ADP (k−ADP) is relatively slow for masseter S1 and can easily be measured in an ADP displacement experiment. This step is very fast for a fast muscle isoform and too fast to measure by current equipment. Briefly, actin.^MassS1 saturated with 75 µM of ADP (A.M.D complex) was mixed with a large excess of ATP (8 mM) in the stopped flow. Then the kobs values, fitted to a single exponential equation (Eqn 1) defined the rate constant by which ADP is released by the ternary A.M.D complex (k−AD).
The temperature dependence of the above studied biochemical steps K1k+2, KADP, KPi, and KADP+Pi data were plotted as the natural logarithm of the measured parameter against the reciprocal of temperature in degrees Kelvin (1/T °K) and fitted with linear regression using the Arrhenius (rate constants) or Van’t Hoff (equilibrium constants) equations(7)) lnK1k+2=ln(A)−Ea/RT (8)) lnKeq=ΔS°/R−ΔH°/RT where Ea stands for activation energy, R is the gas constant, and A is a preexponential factor. The values of –Ea/R or or ΔH°/R were derived from the slopes.

actin.PsoS1 [2] = assay: ADP dissociation constant (KADP) by competitive inhibition of ATP-induced dissociation, psoas; type: binding, rabbit; conditions: for kobs of ATP-induced dissociation with ADP present: 25 µM ATP, 20°C
Method: In a similar process, ADP dissociation constant (KADP), which defines ADP affinity for actin.S1, was measured by adding to the mixture ADP as a competitive inhibitor of ATP binding. […] This approach assumes that ADP is in rapid equilibrium with the actin.S1 complex on the time scale of the ATP-induced dissociation reaction. This was ensured by using the low (25 µM) concentration of ATP. That this assumption holds was tested by repeating the measurement with ADP preincubated with actin.S1 and then mixing with ATP. The observed rate constants were identical in each case.
(§1) (4)) kobs=K1k+2[ATP]/[1+([I]/KI)]

actin.PsoS1 [3] = assay: ADP dissociation constant in the presence of phosphate (KADP+Pi) and calculated KPi app, psoas; type: binding, rabbit; conditions: 30 mM Pi
actin.MassS1 [4] = molecular target: T1, actin.MassS1; assay: ADP dissociation constant in the presence of phosphate (KADP+Pi) and calculated KPi app, masseter; type: binding, bovine; conditions: 15 mM Pi
actin.MassS1 [5] = molecular target: T1, actin.MassS1; design: method as in Bloemink et al. (4); conditions: ref Bloemink et al. (4); cited from earlier work
actin.MassS1 [6] = molecular target: T1, actin.MassS1; assay: ADP dissociation constant (KADP) by competitive inhibition of ATP-induced dissociation, masseter; type: binding, bovine; conditions: for kobs of ATP-induced dissociation with ADP present: 25 µM ATP, 20°C, pH 7.0
Method: In a similar process, ADP dissociation constant (KADP), which defines ADP affinity for actin.S1, was measured by adding to the mixture ADP as a competitive inhibitor of ATP binding. In this case it is convenient to add the ADP to the ATP solution, i.e., 0.5 µM pyr.actin.S1 was mixed with 25 µM ATP with various concentrations of ADP present with the ATP (from 0 to 1200 µM). This approach assumes that ADP is in rapid equilibrium with the actin.S1 complex on the time scale of the ATP-induced dissociation reaction. This was ensured by using the low (25 µM) concentration of ATP. That this assumption holds was tested by repeating the measurement with ADP preincubated with actin.S1 and then mixing with ATP. The observed rate constants were identical in each case.
as §1

- kobs of ADP release (fast phase) (actin.MassS1 [1]; pH 7.0, 5°C): 16.2 s⁻¹
- kobs of ADP release (fast phase) (actin.MassS1 [1]; pH 7.0, 10°C): 26.0 s⁻¹
- kobs of ADP release (fast phase) (actin.MassS1 [1]; pH 7.0, 20°C): 85 s⁻¹ and 85.0 s⁻¹
- kobs of ADP release (fast phase) (actin.MassS1 [1]; pH 7.0, 30°C): 273 s⁻¹
- kobs of ADP release (fast phase) (actin.MassS1 [1]; pH 7.0, […]°C): 46.3 s⁻¹
- activation energy (Ea) of k−AD (ADP release) (actin.MassS1 [1]; pH 6.2, + […] mM Pi): 21.2 ± 0.932 kcal/mol
- activation energy (Ea) of k−AD (ADP release) (actin.MassS1 [1]; pH 6.2, no Pi): 20.2 ± 1.46 kcal/mol
- activation energy (Ea) of k−AD (ADP release) (actin.MassS1 [1]; pH 7.0, + […] mM Pi): 22.6 ± 1.2 kcal/mol
- activation energy (Ea) of k−AD (ADP release) (actin.MassS1 [1]; pH 7.0, no Pi): 18.1 ± 0.98 kcal/mol
- Kd (actin.PsoS1 [2]; Psoas S1, pH 6.2, 10°C, read-out: KADP): 256 ± 32 µM
- Kd (actin.PsoS1 [2]; Psoas S1, pH 6.2, 20°C, read-out: KADP): 228 ± 36 µM
- Kd (actin.PsoS1 [2]; Psoas S1, pH 6.2, 30°C, read-out: KADP): 236 ± 29 µM
- Kd (actin.PsoS1 [2]; Psoas S1, pH 7.0, 10°C, read-out: KADP): 201 ± 34 µM
- Kd (actin.PsoS1 [2]; Psoas S1, pH 7.0, 20°C, read-out: KADP): 203 ± 13 µM
- Kd (actin.PsoS1 [2]; Psoas S1, pH 7.0, 30°C, read-out: KADP): 232 ± 29 µM
- Kd (actin.PsoS1 [2]; psoas actin.S1, between 10 and 30°C, pH 7.0, read-out: ADP affinity (KADP)): ~200 µM
- Kd (actin.PsoS1 [3]; Psoas S1, pH 6.2, 10°C, read-out: KADP+Pi): 665 ± 39 µM
- Kd (actin.PsoS1 [3]; Psoas S1, pH 6.2, 20°C, read-out: KADP+Pi): 514 µM
- Kd (actin.PsoS1 [3]; Psoas S1, pH 6.2, 30°C, read-out: KADP+Pi): 926 ± 73 µM
- Kd (actin.PsoS1 [3]; Psoas S1, pH 7.0, 10°C, read-out: KADP+Pi): 770 ± 37 µM
- Kd (actin.PsoS1 [3]; Psoas S1, pH 7.0, 20°C, read-out: KADP+Pi): 919 ± 72 µM
- Kd (actin.PsoS1 [3]; Psoas S1, pH 7.0, 30°C, read-out: KADP+Pi): 942 µM and 1020 µM
- Kd (actin.PsoS1 [3]; psoas, 10–20°C, pH 7.0, read-out: apparent KADP in the presence of Pi): ~500 µM
- Kd (actin.MassS1 [4]; Masseter S1, pH 6.2, 10°C): 52.2 ± 4.2 µM
- Kd (actin.MassS1 [4]; Masseter S1, pH 6.2, 20°C): 82.6 ± 5.7 µM
- Kd (actin.MassS1 [4]; Masseter S1, pH 6.2, 30°C): 175 µM
- Kd (actin.MassS1 [4]; Masseter S1, pH 7.0, 10°C): 22.5 ± 2.9 µM
- Kd (actin.MassS1 [4]; Masseter S1, pH 7.0, 20°C): 44.4 ± 4.6 µM
- Kd (actin.MassS1 [4]; Masseter S1, pH 7.0, 30°C): 79.3 ± 6.5 µM
- kobs of ATP-induced dissociation with ADP present (actin.MassS1 [6]; 25 µM ADP): 21.7 s⁻¹
- kobs of ATP-induced dissociation with ADP present (actin.MassS1 [6]; 100 µM ADP): 9.1 s⁻¹
- kobs of ATP-induced dissociation with ADP present (actin.MassS1 [6]; 500 µM ADP): 2.6 s⁻¹
- weakening of KADP at pH 6.2 vs pH 7.0 (actin.MassS1 [6]; MassS1, 30°C): 1.5 fold
- Kd (actin.MassS1 [6]; Masseter S1, pH 6.2, 10°C): 22 µM and 21.8 µM
- Kd (actin.MassS1 [6]; Masseter S1, pH 6.2, 20°C): 48.4 µM and 47 µM and 46.8 µM
- Kd (actin.MassS1 [6]; Masseter S1, pH 6.2, 30°C): 83.9 ± 4.7 µM
- Kd (actin.MassS1 [6]; Masseter S1, pH 7.0, 10°C): 9.6 µM and 10 µM and 10.3 µM
- Kd (actin.MassS1 [6]; Masseter S1, pH 7.0, 20°C): 31 µM and 31.3 µM and 29.7 µM
- Kd (actin.MassS1 [6]; Masseter S1, pH 7.0, 30°C): 56.2 ± 6.5 µM
SMILES: Nc1ncnc2c1ncn2[C@@H]1O[C@H](COP(=O)(O)OP(=O)(O)O)[C@@H](O)[C@H]1O [ADP]
- kobs of ATP-induced dissociation with ADP present (actin.PsoS1 [2]; 0.25 mM ADP, pH 7.0): 45.9 s⁻¹
- kobs of ATP-induced dissociation with ADP present (actin.PsoS1 [2]; 1 mM ADP, pH 7.0): 21.4 s⁻¹
- kobs of ATP-induced dissociation with ADP present (actin.PsoS1 [2]; 4 mM ADP, pH 7.0): 14.5 s⁻¹
- kobs of ADP release, published result (actin.MassS1 [5]): 94 s⁻¹

From article PMC5814585, “Modulators of actin-myosin dissociation: basis for muscle type functional differences during fatigue” (American Journal of Physiology - Cell Physiology, 2017)
